From patent US4678810A, “Medical uses of halogenobenzohenone-oxime derivatives” (Institut de Recherches Chimiques et Biologiques of Appliques, priority 1983, dated 1987)
≈ marks a conversion by molar mass, not a printed value.

How the values were obtained:
[1] = Acute oral toxicity (DL-50), 14-day observation; settings: mouse, in vivo, mice, per os, 14 days observation
Experimental: (§1) Assays were performed on batches of mice (males and females) weighing each from 18 to 20 g and receiving the compounds to be tested at the doses of 0.5 g/kg, 0.8 g/kg, 1 g/kg, 2 g/kg, 3 g/kg and 4 g/kg per os in an aqueous medium containing 20 g/l of carboxymethylcellulose, the animals being observed during the 14 days following administration.

[2] = Tolerance: diarrhoea after oral administration; type: in vivo; settings: mice, per os
Experimental: as §1

[3] = Tolerance: rectal temperature after oral administration; type: in vivo; settings: mice, per os, from the dose of 2 g/kg
Experimental: as §1

[4] = Tolerance: weight / liver hypertrophy after oral administration; type: in vivo; settings: mice, per os, from the dose of 0.8 g/kg
Experimental: as §1

[5] = system: Bacillus subtilis ATCC 6633; experiment: Antibacterial activity in vitro (MIC), dilution technique; type: cell-based; settings: ATCC6633
Text: (§2) The antibacterial activity was studied in vitro according to the usual classical dilution techinque with respect to several strains, in order to determine the minimal inhibiting concentration (M.I.C.) i.e. the minimal bacteriostatic concentration.
(§3) The results thus obtained are tabulated in table II hereinafter, the strains used being those of the catalogues of the "Institut Pasteur" of Paris, France (abbreviation: CIP), the "Centre International de Distribution de Souches et d'Information sur les Types Microbiens de Lausanne" (abbreviation: La) and the "American Type Culture Collection" (abbreviation: ATCC).

[6] = system: Diplococcus pneumoniae La 209; experiment: as above; type: cell-based; settings: Streptococcus pneumoniae, LA209
Text: as §2, §3

[7] = system: Diplococcus pneumoniae La 210; experiment: as above; type: cell-based; settings: Streptococcus pneumoniae, LA210
Text: as §2, §3

[8] = system: Staphylococcus aureus ATCC 6538 P; experiment: as above; type: cell-based; settings: ATCC6538
Text: as §2, §3

[9] = system: Staphylococcus aureus La 634; experiment: as above; type: cell-based; settings: LA634
Text: as §2, §3

[10] = system: Staphylococcus aureus La 636; experiment: as above; type: cell-based; settings: LA636
Text: as §2, §3

[11] = system: Staphylococcus aureus La 659; experiment: as above; type: cell-based; settings: LA659
Text: as §2, §3

[12] = system: Staphylococcus aureus London CIP A.238; experiment: as above; type: cell-based
Text: as §2, §3

[13] = system: Streptococcus La 147; experiment: as above; type: cell-based; settings: LA147
Text: as §2, §3

[14] = system: Streptococcus faecalis CIP 53.152; experiment: as above; type: cell-based; settings: Enterococcus faecalis, CIP53
Text: as §2, §3

[15] = system: Streptococcus faecalis CIP 55.142; experiment: as above; type: cell-based; settings: Enterococcus faecalis, CIP55
Text: as §2, §3

[16] = system: Streptococcus pyogenes CIP. 56.1; experiment: as above; type: cell-based
Text: as §2, §3

[17] = system: Streptococcus pyogenes CIP. 56.41; experiment: as above; type: cell-based
Text: as §2, §3

[18] = system: Streptococcus pyogenes CIP. 56.43; experiment: as above; type: cell-based
Text: as §2, §3

[19] = system: Streptococcus pyogenes CIP. 56.45; experiment: as above; type: cell-based
Text: as §2, §3

[20] = system: Streptococcus pyogenes CIP. A 241; experiment: as above; type: cell-based; settings: CIP.A241
Text: as §2, §3

[21] = cited from earlier work
[22] = system: Gram+ bacteriae; settings: commercialized drug; cited from earlier work
[23] = system: Gram+ strains; experiment: Antibacterial activity in vitro, summary for Gram+ strains; type: cell-based, Gram+ bacteriae; settings: compared with B.11
Text: as §2, §3

[24] = system: Gram- strains such as Neisseria; experiment: Antibacterial activity in vitro, summary for some Gram- strains; type: cell-based
Text: as §2, §3

[25] = system: acute infections of the otorhinolaryngological system and bronchopathies; experiment: Clinical assays in acute infections of the otorhinolaryngological system and bronchopathies; type: in vivo, human; settings: humans, acute ENT infections and bronchopathies
Experimental: Clinical assays carried out on human beings suffering from infectious disease caused by Gram+ bacteriae and Neisseria Gram- bacteria gave fair and good results, especially when the pharmaceutical composition according to the invention which was administered suitably contained from 0.1 to 95% by weight of at least one compound of the formula I.
For oral administration, the composition is preferably formulated as tablets or gelatine-coated capsules, each tablet or capsule containing from 10 to 200 mg of the active ingredient. For the treatment of infections due to Gram+ bacteriae and Neisseria, such tablets or capsules are suitably administered to human patients at the rate of 2 to 8 tablets or capsules per day, for at least 4 days and preferably from 4 to 7 days, in particular for compound B.602.

[26] = parameters: species or system mice; settings: mouse, in vivo
Experimental: as §1

Structure (SMILES)	LD50 at 336 h [1] [mg/kg]	MIC [5] [µg/mL]	MIC [6] [µg/mL]	MIC [7] [µg/mL]	MIC [8] [µg/mL]	MIC [9] [µg/mL]	MIC [10] [µg/mL]	MIC [11] [µg/mL]	MIC [12] [µg/mL]	MIC [13] [µg/mL]	MIC [14] [µg/mL]	MIC [15] [µg/mL]	MIC [16] [µg/mL]	MIC [17] [µg/mL]	MIC [18] [µg/mL]	MIC [19] [µg/mL]	MIC [20] [µg/mL]	further results
CC(C)(C)CC(C)(C)c1ccc(O)c(Cc2ccc(Cl)cc2Cl)c1 [Clofoctol, 2-(2,4-dicholrobenzyl)-4-(1,1,3,3-tetramethylbutyl)-phenol]	2000	4 (≈ 10.9 µM)	4 (≈ 10.9 µM)	5 (≈ 13.7 µM)	8 (≈ 21.9 µM)	6 (≈ 16.4 µM)	5 (≈ 13.7 µM)	6 (≈ 16.4 µM)	3 (≈ 8.21 µM)	7 (≈ 19.2 µM)	6 (≈ 16.4 µM)	5 (≈ 13.7 µM)	3 (≈ 8.21 µM)	4 (≈ 10.9 µM)	2 (≈ 5.47 µM)	2 (≈ 5.47 µM)	4 (≈ 10.9 µM)	dose at which it begins to induce diarrhoea [2]: 800 mg/kg; reduction of rectal temperature [3]: reduces the rectal temperature for 48 hours; liver hypertrophy [4]: induces a slight liver hypertrophy; hydrosolubility / hydrodispersibility [21]: not naturally hydrosoluble nor hydrodispersible; effectiveness in infectious diseases caused by Gram+ bacteriae [22]: particularly effective
CC(C)(C)CC(C)(C)c1ccc(O)c(C(=NO)c2ccc(Cl)cc2Cl)c1 [Example 1, 2',4'-dichloro-2-hydroxy-5-(1,1,3,3-tetramethylbutyl)-benzophenone-oxime]	> 4000	1 (≈ 2.54 µM)	4 (≈ 10.1 µM)	3 (≈ 7.61 µM)	4 (≈ 10.1 µM)	3 (≈ 7.61 µM)	4 (≈ 10.1 µM)	5 (≈ 12.7 µM)	1 (≈ 2.54 µM)	2 (≈ 5.07 µM)	3 (≈ 7.61 µM)	2 (≈ 5.07 µM)	2 (≈ 5.07 µM)	3 (≈ 7.61 µM)	1 (≈ 2.54 µM)	1 (≈ 2.54 µM)	2 (≈ 5.07 µM)	activity against Gram+ strains [23]: more active than B.11; activity against some Gram- strains [24]: active against some Gram- strains such as Neisseria; clinical result as a bactericidal agent [25]: very interesting as a bactericidal agent; tolerance compared with B.11 [26]: better tolerated than B.11
